For 35 compounds, GI50 and TGI results are on record in PubChem BioAssay (NCI).

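Assay format: 96-well plates, 48-hour exposure. GI50 marks 50% less growth. The concentration for full growth arrest is given as TGI.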

The subject of this experiment is MDA-MB-468 breast. Put plainly: growth of human tumour cells (NCI), 48 h.

For `Cc1nc2ccccc2c(/C=C/c2ccccc2)c1C(=O)/C=C/c1ccccc1`, the GI50 was 1.79 µM and the TGI amounted to 3.5 µM.

For the compound `Cc1ccccc1C[P+](c1ccccc1)(c1ccccc1)c1ccccc1`, the GI50 is 0.265 µM and the TGI was determined as 1.16 µM.

With `NC(Cc1c[nH]c2cc(F)ccc12)C(=O)O` (stereo not given), the GI50 is 1010 µM and the TGI is greater than 2500 µM.

On to `CCCCCCCCCCCCC(NC(C)=O)(C(=O)OCC)C(=O)OCC`, for which the GI50 was 4.67 µM and the TGI was found to be 18.6 µM.

Regarding `O=C1CCC(N2C(=O)c3cccc(NCCOCCOCCNC(=O)c4cc5c(o4)C(=O)c4ccccc4C5=O)c3C2=O)C(=O)N1` (stereo not given), the GI50 was 1.46 µM and the TGI is 3.88 µM.

`CCCCCC(=C/c1ccccc1)/C=N/N=C(N)N`: the GI50 is 1.56 µM and the TGI is 3 µM.

Turning to `C=C(C)[C@@H]1CC[C@]2(CN)CC[C@]3(C)[C@H](CC[C@@H]4[C@@]5(C)CCC(N)[C@@](C)(CO)[C@@H]5CC[C@]43C)[C@@H]12` (stereo not given in full), the GI50 is 1.77 µM and the TGI amounted to 3.42 µM.

As for `CCCc1n(Cc2ccc3ccccc3n2)cc[n+]1Cc1ccc2ccccc2c1`, the GI50 was 0.273 µM and the TGI was 1.49 µM.

In the case of `CC(=Nc1ccccc1)C1=C(O)C(Cc2ccc(F)cc2)NC1=O` (stereo not given), the GI50 is 0.382 µM and the TGI worked out at 5.22 µM.

Regarding `C=C1C(=O)O[C@H]2[C@H]1CC/C(Cn1cc(-c3ccsc3)nn1)=C\CC[C@@]1(C)O[C@@H]21`, the GI50 was 1.28 µM and the TGI turned out to be 3.56 µM.

For the compound `C#C[C@]1(O)CC[C@H]2[C@@H]3CC=C4c5sc(Nc6ccc(C)cn6)nc5CC[C@]4(C)[C@H]3CC[C@@]21C`, the GI50 is 1.07 µM and the TGI was determined as 3.13 µM.

As for `CCCCCCCCCC[N+](C)(C)C`, the GI50 is 0.43 µM and the TGI was 2.79 µM.

On to `C[C@@H]1OC(=O)NN=C1c1ccc(-c2ccc(F)cc2)c(C(F)(F)F)c1`, for which the GI50 is 1.74 µM and the TGI came to 6.61 µM.

Take `CC[C@]12C=CCN3CC[C@@]4(c5cc(NC(=O)COc6cc(O)c7c(=O)cc(-c8ccccc8)oc7c6)c(OC)cc5N(C)[C@H]4[C@@](O)(C(=O)OC)[C@@H]1OC(C)=O)[C@@H]32`: the GI50 is 1.52 µM and the TGI came to 3 µM.

Consider `O=C(Nc1ccc(N2CCNCC2)cn1)c1[nH]ncc1Nc1ncnc2sccc12`, for which the GI50 was 1.69 µM and the TGI turned out to be 3.42 µM.

In the case of `CN1CCN(c2ccc(-c3cccc(CN4CCOCC4)c3)cc2NC(=O)c2c[nH]c(=O)cc2C(F)(F)F)CC1`, the GI50 was 20.2 µM and the TGI was determined as 92.5 µM.

Take `O=S(=O)(NCCNc1cc(-c2cn(-c3ccccc3)nc2-c2cccc(O)c2)ccn1)c1ccc(Br)cc1`: the GI50 is 2.7 µM and the TGI is 7.79 µM.

As for `C#CCOc1ccc(-c2csc(NC(=O)C=C)n2)cc1NS(=O)(=O)c1cccc2c(N(C)C)cccc12`, the GI50 was 0.823 µM and the TGI was 1.71 µM.

As for `COc1c2occc2cc2ccc(=O)oc12`, the GI50 was greater than 100 µM and the TGI is greater than 100 µM.

Regarding `CCCC(=O)Nc1c(I)cc(I)c(CC(CC)C(=O)O)c1I` (stereo not given), the GI50 is greater than 100 µM and the TGI is greater than 100 µM.

With `COc1ccc(C(=O)c2cc(C)c(OC)c(C)c2)c(OC)c1N(C(=O)CCl)C(=O)CCl`, the GI50 was 0.0296 µM and the TGI was 1.37 µM.

Regarding `COC1C(O)CC(OC2CC(OC3CC(O[C@@H]4C(=O)c5c(cc6cc(OC7CC(OC8CC(O)C(O)C(C)O8)C(O)C(C)O7)c(C)c(O)c6c5O)CC4[C@H](OC)[C@@H](O)C(C)=O)OC(C)C3O)OC(C)C2O)OC1C` (stereo not given in full), the GI50 was 0.0256 µM and the TGI stood at 2.65 µM.

For `O=C(Nc1ccc(-n2ccc3c(NC(=O)c4ccccc4)nccc32)cc1)c1ccc(N2CCOCC2)c(C(F)(F)F)c1`, the GI50 was 1.74 µM and the TGI was 19.2 µM.

Consider `Clc1ccc(COC(Cn2ccnc2)c2ccc(Cl)cc2Cl)c(Cl)c1` (stereo not given), for which the GI50 was 1.84 µM and the TGI came out at 5.13 µM.

In the case of `COCC(=O)NC/C=C/c1ccc2ncnc(Nc3ccc(Oc4ccc(C)nc4)c(C)c3)c2c1`, the GI50 was 1.96 µM and the TGI amounted to 10.3 µM.

For `CCN(CC)CCOc1ccc(Cc2ccccc2)cc1`, the GI50 is 16.2 µM and the TGI was found to be 41.2 µM.

For `COc1ccc(-c2cc(-c3ccc(Cl)cc3)nc(SCCCCCCC(=O)NO)n2)cc1`, the GI50 is 1.64 µM and the TGI came to 7.19 µM.

In the case of `Cc1cc(C)c(O)c(CNCCCNCc2cc(C)cc(C)c2O)c1`, the GI50 was 1.69 µM and the TGI stood at 3.24 µM.

Take `C[C@@]1(O)CCC[C@H]1n1c(=O)c(C(F)F)cc2cnc(NC3CCN(S(C)(=O)=O)CC3)nc21`: the GI50 was 1.61 µM and the TGI turned out to be 4.76 µM.

For the compound `N#Cc1ccc(NC(=O)Nc2nc3ccc(OC(F)(F)F)cc3s2)cc1`, the GI50 is 0.46 µM and the TGI was 4.84 µM.

For `COC(=O)CCCNC(=O)C(=O)c1c(O)c(O)c(C(C)C)c2cc(C)c(-c3c(C)cc4c(C(C)C)c(O)c(O)c(C(=O)C(=O)NCCCC(=O)OC)c4c3O)c(O)c12`, the GI50 was 0.364 µM and the TGI was determined as 2.97 µM.

Consider `COC(=O)[C@H](Cc1cn(C)cn1)NC(=O)[C@@H](NC(=O)Nc1cc(C(F)(F)F)cc(C(F)(F)F)c1)C(C)(C)C`, for which the GI50 was greater than 10 µM and the TGI is greater than 10 µM.

In the case of `Cc1ccc2c(n1)C(=O)C(Cl)=C(Nc1ccc(C#N)cc1)C2=O`, the GI50 is 1.78 µM and the TGI was 3.81 µM.

Take `CN1CCN(Cc2ccc(NC(=O)c3cccc(C#Cc4c(N)ncc5ccc(F)cc45)c3)cc2C(F)(F)F)CC1`: the GI50 was 0.888 µM and the TGI came to 1.83 µM.

In the case of `CC(C)=CCc1c(O)c(C(=O)CC(C)C)c(O)c2c(-c3ccccc3)cc(=O)oc12`, the GI50 was 7.74 µM and the TGI came out at 36.2 µM.
